Assay results reported in paper PMC6508677, “Identification of druggable small molecule antagonists of the Plasmodium falciparum hexose transporter PfHT and assessment of ligand access to the glucose permeation pathway via FLAG-mediated protein engineering” (PLoS ONE, 2019).
Values joined by “and” are separate entries in the source; they are usually repeats but may differ in a detail not shown here. Identical values can stand only once. Like-named read-outs stand apart in the source and are kept apart here.

Target: T1, hGLUT8 (Homo sapiens, UniProt Q9NY64, E7R/E8R)
T1 construct: expressed in transfected cells; host or cells: HEK293 (HEK293-FLIP, native hGLUT1 knocked down)
T1 sequence (Q9NY64 1-477 E7R/E8R): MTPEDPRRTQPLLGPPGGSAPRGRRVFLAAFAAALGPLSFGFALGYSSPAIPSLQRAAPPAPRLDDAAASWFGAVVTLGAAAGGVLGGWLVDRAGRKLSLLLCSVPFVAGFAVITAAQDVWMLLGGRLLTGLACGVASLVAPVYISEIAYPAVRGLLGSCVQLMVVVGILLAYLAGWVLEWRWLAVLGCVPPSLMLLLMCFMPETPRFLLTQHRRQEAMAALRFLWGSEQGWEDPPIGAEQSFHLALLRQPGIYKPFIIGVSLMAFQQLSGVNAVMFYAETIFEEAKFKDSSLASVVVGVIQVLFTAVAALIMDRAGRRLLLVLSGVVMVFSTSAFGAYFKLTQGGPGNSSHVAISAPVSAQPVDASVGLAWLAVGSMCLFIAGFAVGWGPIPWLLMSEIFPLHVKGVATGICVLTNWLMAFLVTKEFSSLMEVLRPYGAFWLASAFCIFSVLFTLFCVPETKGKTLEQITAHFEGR
Experiment: [3H]-D-fructose uptake by HEK293 cells overexpressing hGLUT8
Format: cell-based
From the text: Generation of HEK293 cells overexpressing PfHT and human GLUTs 1–4 were described elsewhere. Briefly, HEK293 cells were transfected with pcDNA3.1 FLII12Pglu-7006 (Addgene), containing the fluorescence resonance energy transfer (FRET) glucose sensor (HEK293-FLIP) and PfHT, human GLUT1 (hGLUT1), hGLUT2, hGLUT3, hGLUT4, hGLUT5 or hGLUT8 using Optifect (Life Technologies) according to manufacturer’s specifications. To increase retention of GLUT8 at the plasma membrane, the dileucine sorting signal E^7E^8XXXLL was modified to R^7R^8XXXLL as described in [17]. Stable transfectants were selected for G418 and hygromycin resistance to select for FRET sensor and hexose transporter, respectively. HEK293-FLIP cells were also used to generate cells stably transfected with FLAG-tagged PfHT (FTPfHT). FLAG tag ([…]) followed by a triple glycine linker and a tobacco etch virus (TEV) protease site (ENLYFQS) followed by a triple glycine linker was added to the N-terminus of PfHT via PCR [18] using Phusion Hot Start II High-Fidelity DNA Polymerase (Fisher Scientific). Single clones were selected by comparing their abilities to transport glucose as assayed via FRET and radiolabeled hexose uptake. In all cell lines, except for HEK293 cells overexpressing hGLUT1 and hGLUT5, native hGLUT1 was knocked down using shRNA as described elsewhere. Transcript levels of the individual GLUTs expressed in each cell line are as described in [13, 15] and in S1 Fig.
Glucose uptake by P. falciparum was performed essentially as described. P. falciparum strain 3D7 was cultured in 100 mm tissue culture dishes (Techno Plastic Products) in a 2% suspension of human erythrocytes and RPMI 1640 medium until reaching > 7.5% parasitemia. Cells were pelleted via centrifugation and resuspended in RPMI 1640 medium. To determine the uptake of radiolabeled glucose into the parasite, parasites were isolated from infected erythrocytes by permeablization with saponin (0.05 w/v), followed by centrifugation, aspiration of supernatant and washing of the pellet 3X with saline solution (135 mM NaCl, 2 mM KCl, 25 mM HEPES, 0.2 mM glucose and 1 mM MgCl2; pH 7.1) to remove cellular debris. WU-1 or DMSO vehicle were added to 100 μl parasites (resuspended in saline) 5 min prior to the addition of 100 μl [^14C]2-DOG (0.2- μCi/ml final concentration). 2-DG uptake was stopped after 2 min by layering the entire reaction over 300 μl of an oil mixture (5:4 mix of dibutyl phthalate / dinonyl phthalate) in Eppendorf tubes and centrifuged at 15,850 × g for 2 mins. The ratio of the estimated intracellular concentration of radiolabel relative to the extracellular concentration were calculated as described. Uptake of radiolabeled hexose into HEK293 cells was measured in glucose-free HBSS as described previously. Briefly, cells were plated at 400,000 cells/well overnight at 37°C in 24-well plates pre-treated with PEI. After 30-min incubation at 37°C in glucose-free HBSS in the presence of vehicle or increasing concentrations of compound, 2-DG uptake was measured in glucose-free HBSS for 4 min at 37°C. Cultures were washed in ice-cold 1X PBS and lysed in 0.1% Triton X-100 in 1X PBS. Radiolabeled hexose uptake was determined by liquid scintillation counting (Ultima Gold, Thermo Fisher) and normalized to total protein per well. Uptake data are plotted as percent uptake relative to vehicle-treated cells. Kinetic analyses were performed using the indicated concentrations of substrate and WU-1, with quenching of uptake after 1 min incubation. Incubation times had been previously determined as being in the linear range of time-dependent radiolabeled hexose uptake (2 min for 2-DG uptake into freed parasites; 2 and 4 min for D-Frc and 2-DG uptake HEK cell lines, respectively). Data were fit by least squares nonlinear regression analysis using GraphPad Prism 6.0 software.

[1] = HEK293, 2 min, read-out: D-frc Uptake AVE

## Cc1ccc(S(=O)(=O)CCNC(=O)c2c(-c3c(Cl)cccc3Cl)noc2C)cc1 [WU-1, 3-(2,6-dichlorophenyl)-5-methyl-N-[2-(4-methylbenzenesulfonyl)ethyl]-1,2-oxazole-4-carboxamide]
GLUT8, D-frc Uptake, average of Expt 1-3, read-out: AVE IC50
  IC50: 22 µM
GLUT8, D-frc Uptake, single experiments Expt 1-3, read-out: IC50
  IC50: 23.3 µM and 19.7 µM and 23.1 µM
GLUT8 cell line, read-out: IC50, D-fructose (Frc) uptake
  IC50: 22 ± 1.2 µM
HEK293, 2 min, GLUT8, concentration 0.001 µM, Expt 1-3, read-out: D-frc Uptake AVE
  remaining activity at 0.001 µM: 100%
HEK293, 2 min, GLUT8, concentration 0.313 µM, read-out: D-frc Uptake AVE
  remaining activity at 0.313 µM: 96.4%
HEK293, 2 min, GLUT8, concentration 0.625 µM, read-out: D-frc Uptake AVE
  remaining activity at 0.625 µM: 90%
HEK293, 2 min, GLUT8, concentration 1.250 µM, read-out: D-frc Uptake AVE
  remaining activity at 1.25 µM: 89.1%
HEK293, 2 min, GLUT8, concentration 2.500 µM, read-out: D-frc Uptake AVE
  remaining activity at 2.5 µM: 86%
HEK293, 2 min, GLUT8, concentration 5.0 µM, read-out: D-frc Uptake AVE
  remaining activity at 5 µM: 78.5%
HEK293, 2 min, GLUT8, concentration 10.0 µM, read-out: D-frc Uptake AVE
  remaining activity at 10 µM: 71.4%
HEK293, 2 min, GLUT8, concentration 20 µM, read-out: D-frc Uptake AVE
  remaining activity at 20 µM: 53%
HEK293, 2 min, GLUT8, concentration 40 µM, read-out: D-frc Uptake AVE
  remaining activity at 40 µM: 46.1%
HEK293, 2 min, GLUT8, concentration 80 µM, read-out: D-frc Uptake AVE
  remaining activity at 80 µM: 30.5%
HEK293, 2 min, GLUT8, concentration 160 µM, read-out: D-frc Uptake AVE
  remaining activity at 160 µM: 24.8%
HEK293, 2 min, GLUT8, concentration 225 µM, read-out: D-frc Uptake AVE
  remaining activity at 225 µM: 22.6%
[1]
  remaining activity at 0.625 µM: 91.6%
  remaining activity at 2.5 µM: 84.6%
Calculated from IC50s
  Selectivity Index (PfHT over GLUT8), Frc: 4.4
